“Also recorded” adds a separate entry of the source.
Test system: TLR7/8 agonist R848-stimulated monocytes
Experiment: Ex-vivo R848-stimulated healthy monocytes, RNA-seq of HS-overexpressed proinflammatory transcripts
Format: cell-based, human
Conditions: healthy donor monocytes (N=3), 500 nM overnight, then R848, RNA-seq at 2 hours

In the case of `Cn1c(=O)n(C2CCC(=O)NC2=O)c2cccc(C#CCOC3CCN(C[C@H]4CC[C@H](n5cc(NC(=O)c6cnn7ccc(N8C[C@H]9C[C@@H]8CO9)nc67)c(C(F)F)n5)CC4)CC3)c21` (stereo partly shown) [Degrader 2], the “effect on TLR-mediated (R848) induction of HS-overexpressed proinflammatory transcripts” value is reported as “inhibits TLR-mediated induction of HS-overexpressed proinflammatory transcripts; also recorded: inhibits TLR-stimulated upregulation of HS-overexpressed inflammatory genes”.
